Where “and” joins values, the source holds several entries; their conditions need not be identical. Equal entries are not always repeated. Toxic doses and inconclusive results are not listed. The calls were made as follows: active = survival T/C of 150% or more; inactive = T/C below 125% in these data.
System: P388 leukemia ip, CD2F1 mice, survival T/C
Assay: NCI In Vivo Anticancer Drug Screen. Data for tumor model P388 Leukemia (intraperitoneal) in CD2F1 (CDF1) mice
Settings: endpoint: median survival time, higher = longer survival
In short: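 Mice carrying the transplanted tumor received test compound or vehicle. Survival was recorded in each group, and the value is the treated-group measurement divided by that of the vehicle-treated control group.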

[1] = dose: 12.5 mg/kg/injection, schedule: Q01DX009 (ip), vehicle: saline
[2] = dose: 50.0 mg/kg/injection, schedule: Q01DX009 (ip), vehicle: saline
[3] = dose: 100.0 mg/kg/injection, schedule: Q01DX009 (ip), vehicle: saline
[4] = dose: 25.0 mg/kg/injection, schedule: Q01DX005 (ip), vehicle: saline with Tween-80
[5] = dose: 50.0 mg/kg/injection, schedule: Q01DX005 (ip), vehicle: saline with Tween-80
[6] = dose: 100.0 mg/kg/injection, schedule: Q01DX005 (ip), vehicle: saline with Tween-80
[7] = dose: 200.0 mg/kg/injection, schedule: Q01DX005 (ip), vehicle: saline with Tween-80
[8] = dose: 200.0 mg/kg/injection, schedule: Q01DX009 (ip), vehicle: saline
[9] = dose: 50.0 mg/kg/injection, schedule: Q01DX005 (ip), vehicle: Klucel (hydroxypropylcellulose) (HPC)
[10] = dose: 100.0 mg/kg/injection, schedule: Q01DX009 (ip), vehicle: Klucel (hydroxypropylcellulose) (HPC)
[11] = dose: 200.0 mg/kg/injection, schedule: Q01DX009 (ip), vehicle: Klucel (hydroxypropylcellulose) (HPC)
[12] = dose: 12.5 mg/kg/injection, schedule: Q01DX009 (ip), vehicle: saline with Tween-80
[13] = dose: 100.0 mg/kg/injection, schedule: Q01DX005 (ip), vehicle: Klucel (hydroxypropylcellulose) (HPC)

Measured: T/C

CCOS(=O)(=O)c1ccc([N+](=O)[O-])cc1
inactive: [1] 95 % of control | dose: 25.0 mg/kg/injection, schedule: Q01DX009 (ip), vehicle: saline 100 % of control | [2] 98 % of control | [3] 100 % of control and 90 % of control

[Co].c1c[nH]cn1.c1c[nH]cn1.c1c[nH]cn1.c1c[nH]cn1.c1c[nH]cn1.c1c[nH]cn1
inactive: dose: 12.5 mg/kg/injection, schedule: Q01DX005 (ip), vehicle: saline with Tween-80 103 % of control | [4] 94 % of control | [5] 103 % of control and 107 % of control

CSc1nc(N)c(N=O)c(N)n1
inactive: dose: 50.0 mg/kg/injection, schedule: Q04DX002 (ip), vehicle: suspension in saline 100 % of control | dose: 100.0 mg/kg/injection, schedule: Q04DX002 (ip), vehicle: suspension in saline 101 % of control | dose: 200.0 mg/kg/injection, schedule: Q04DX002 (ip), vehicle: suspension in saline 104 % of control

CC(/C=C/c1ccc(C)cc1)=N\NC(N)=S
inactive: dose: 1.5 mg/kg/injection, schedule: Q01DX005 (ip), vehicle: Klucel + Tween-80 99 % of control | dose: 3.0 mg/kg/injection, schedule: Q01DX005 (ip), vehicle: Klucel + Tween-80 105 % of control | dose: 6.0 mg/kg/injection, schedule: Q01DX005 (ip), vehicle: Klucel + Tween-80 105 % of control | dose: 6.0 mg/kg/injection, schedule: Q01DX005 (ip), vehicle: saline 112 % of control

c1ccc(C2SCC3(CCCCC3)CS2)cc1
inactive: [4] 98 % of control | dose: 50.0 mg/kg/injection, schedule: Q01DX001 (ip), vehicle: saline with Tween-80 101 % of control | [5] 100 % of control | dose: 100.0 mg/kg/injection, schedule: Q01DX001 (ip), vehicle: saline with Tween-80 101 % of control | [6] 100 % of control | dose: 200.0 mg/kg/injection, schedule: Q01DX001 (ip), vehicle: saline with Tween-80 94 % of control | [7] 98 % of control | dose: 400.0 mg/kg/injection, schedule: Q01DX001 (ip), vehicle: saline with Tween-80 88 % of control

CN(C/C=C/CN(C)C(=O)Nc1ccccc1)C(=O)Nc1ccccc1
inactive: [2] 96 % of control | [3] 100 % of control | [8] 89 % of control

C=C(C)COc1ccc(C)cc1
inactive: dose: 25.0 mg/kg/injection, schedule: Q01DX009 (ip), vehicle: other 108 % of control | dose: 50.0 mg/kg/injection, schedule: Q01DX009 (ip), vehicle: other 104 % of control | dose: 100.0 mg/kg/injection, schedule: Q01DX009 (ip), vehicle: other 110 % of control

Cc1ncc(Cn2c(C)c(CCO)sc2=S)c(N)n1
inactive: [2] 99 % of control | [3] 101 % of control | [8] 108 % of control

O=C(N=[N+]([O-])c1ccccc1)c1ccccc1
inactive: dose: 3.12 mg/kg/injection, schedule: Q01DX001 (ip), vehicle: saline with Tween-80 107 % of control | dose: 6.25 mg/kg/injection, schedule: Q01DX001 (ip), vehicle: saline with Tween-80 110 % of control | dose: 6.25 mg/kg/injection, schedule: Q04DX003 (ip), vehicle: saline with Tween-80 109 % of control and 118 % of control | dose: 12.5 mg/kg/injection, schedule: Q01DX001 (ip), vehicle: saline with Tween-80 99 % of control | dose: 12.5 mg/kg/injection, schedule: Q04DX003 (ip), vehicle: saline with Tween-80 114 % of control and 117 % of control | dose: 25.0 mg/kg/injection, schedule: Q04DX003 (ip), vehicle: saline with Tween-80 89 % of control and 95 % of control

CC1(C)CCCC(C)(C2CCC3(C)C2C(O)CC2C4(C)CCC(O)C(C)(C)C4CCC23C)O1 (centres undefined)
inactive: dose: 8.0 mg/kg/injection, schedule: Q01DX009 (ip), vehicle: Klucel (hydroxypropylcellulose) (HPC) 101 % of control | dose: 16.0 mg/kg/injection, schedule: Q01DX009 (ip), vehicle: Klucel (hydroxypropylcellulose) (HPC) 96 % of control | dose: 32.0 mg/kg/injection, schedule: Q01DX009 (ip), vehicle: Klucel (hydroxypropylcellulose) (HPC) 99 % of control | dose: 37.5 mg/kg/injection, schedule: Q01DX009 (ip), vehicle: Klucel (hydroxypropylcellulose) (HPC) 103 % of control | dose: 64.0 mg/kg/injection, schedule: Q01DX009 (ip), vehicle: Klucel (hydroxypropylcellulose) (HPC) 97 % of control | dose: 75.0 mg/kg/injection, schedule: Q01DX009 (ip), vehicle: Klucel (hydroxypropylcellulose) (HPC) 94 % of control | dose: 150.0 mg/kg/injection, schedule: Q01DX009 (ip), vehicle: Klucel (hydroxypropylcellulose) (HPC) 100 % of control | dose: 300.0 mg/kg/injection, schedule: Q01DX009 (ip), vehicle: Klucel (hydroxypropylcellulose) (HPC) 91 % of control

CC(=O)Oc1c(OC(C)=O)c(C=O)c2c(OC(C)=O)c(-c3c(C)cc4c(C(C)C)c(OC(C)=O)c(OC(C)=O)c(C=O)c4c3OC(C)=O)c(C)cc2c1C(C)C
inactive: dose: 12.5 mg/kg/injection, schedule: Q01DX005 (ip), vehicle: Klucel (hydroxypropylcellulose) (HPC) 102 % of control | dose: 25.0 mg/kg/injection, schedule: Q01DX005 (ip), vehicle: Klucel (hydroxypropylcellulose) (HPC) 107 % of control | [9] 103 % of control and 111 % of control

ClB1NB(Cl)NB(Cl)N1
inactive: [10] 108 % of control and 93 % of control | [11] 108 % of control and 86 % of control | dose: 400.0 mg/kg/injection, schedule: Q01DX009 (ip), vehicle: Klucel (hydroxypropylcellulose) (HPC) 109 % of control and 95 % of control

O=C(CN1CCCCC1)Nc1ccc(I)cc1
inactive: dose: 50.0 mg/kg/injection, schedule: Q01DX009 (ip), vehicle: saline with Tween-80 104 % of control | dose: 100.0 mg/kg/injection, schedule: Q01DX009 (ip), vehicle: saline with Tween-80 107 % of control | dose: 200.0 mg/kg/injection, schedule: Q01DX009 (ip), vehicle: saline with Tween-80 114 % of control

O=C1c2ccccc2C2(c3ccc(O)cc3)c3ccccc3Oc3cccc1c32 (centres undefined)
inactive: [5] 90 % of control | [6] 92 % of control | [7] 95 % of control

CC1(O)c2ccccc2[P+](C)(c2ccccc2)c2ccccc21 (centres undefined)
inactive: [12] 111 % of control | dose: 25.0 mg/kg/injection, schedule: Q01DX009 (ip), vehicle: saline with Tween-80 109 % of control

CN1CCC2(C)CC(Br)(Cc3ccccc32)C1Cl (centres undefined)
inactive: [9] 108 % of control | [13] 106 % of control

OC12CCC(c3ccccc3)(CC1)CC2
inactive: dose: 50.0 mg/kg/injection, schedule: Q01DX009 (ip), vehicle: Klucel (hydroxypropylcellulose) (HPC) 104 % of control | [10] 100 % of control | [11] 100 % of control

ClC1=C(Cl)N(C2=NCCC2)CC1
inactive: dose: 6.25 mg/kg/injection, schedule: Q01DX009 (ip), vehicle: Klucel (hydroxypropylcellulose) (HPC) 96 % of control | dose: 12.5 mg/kg/injection, schedule: Q01DX009 (ip), vehicle: Klucel (hydroxypropylcellulose) (HPC) 99 % of control | dose: 25.0 mg/kg/injection, schedule: Q01DX009 (ip), vehicle: Klucel (hydroxypropylcellulose) (HPC) 99 % of control

Cc1nn(-c2ccc(S(=O)(=O)[O-])cc2)c([O-])c1N=[N+](C)c1ccc(-c2ccc(N=Nc3ccc4c(S(=O)(=O)[O-])cc(S(=O)(=O)[O-])c(N)c4c3[O-])c([O-])c2)cc1[O-].[Cu+2].[Cu+2].[Na+]
inactive: dose: 3.12 mg/kg/injection, schedule: Q01DX009 (ip), vehicle: saline with Tween-80 96 % of control | dose: 6.25 mg/kg/injection, schedule: Q01DX009 (ip), vehicle: saline with Tween-80 96 % of control | [12] 99 % of control and 86 % of control | [1] 97 % of control | [2] 96 % of control

COC(=O)c1ccccc1S(=O)(=O)NC(C)C
inactive: [9] 99 % of control | [13] 96 % of control | dose: 200.0 mg/kg/injection, schedule: Q01DX005 (ip), vehicle: Klucel (hydroxypropylcellulose) (HPC) 105 % of control

N#CCCn1nc(SCc2ccccc2)c(=O)[nH]c1=O
inactive: [5] 95 % of control | [6] 94 % of control | [7] 92 % of control

Nc1c(/C=C/c2ccccc2)[nH]c(=O)[nH]c1=O
inactive: dose: 25.0 mg/kg/injection, schedule: Q04DX002 (ip), vehicle: saline 104 % of control | dose: 50.0 mg/kg/injection, schedule: Q04DX002 (ip), vehicle: saline 105 % of control | dose: 100.0 mg/kg/injection, schedule: Q04DX002 (ip), vehicle: saline 121 % of control and 88 % of control

C/C(=N\OCC(O)CNCCSCc1ccccc1)c1ccccc1Cl (centres undefined)
inactive: dose: 30.0 mg/kg/injection, schedule: Q01DX005 (ip), vehicle: Klucel (hydroxypropylcellulose) (HPC) 97 % of control | dose: 60.0 mg/kg/injection, schedule: Q01DX005 (ip), vehicle: Klucel (hydroxypropylcellulose) (HPC) 91 % of control | dose: 120.0 mg/kg/injection, schedule: Q01DX005 (ip), vehicle: Klucel (hydroxypropylcellulose) (HPC) 100 % of control and 91 % of control

From PubChem BioAssay AID330 (DTP/NCI, 2004)
